Article PMC11640836, “Aminomethylmorpholino Nucleosides as Novel Inhibitors of PARP1 and PARP2: Experimental and Molecular Modeling Analyses of Their Selectivity and Mechanism of Action” (International Journal of Molecular Sciences, 2024)
Read-outs that look alike come from different tables or passages of the source.

Assays:
PARP1-DNA complex [1] = target: T1, PARP1-DNA complex (Homo sapiens, UniProt P09874); assay: Fluorescence anisotropy titration of FAM-labeled gap-DNA with PARP1; format: binding; conditions: 120 µM inhibitor, absence vs presence
T1 construct: made in house; host or cells: insect cells
Experimental: (§1) Fluorescence anisotropy measurements of FAM-labeled DNA were performed in the absence and presence of various concentrations of PARP1/PARP2 with or without sub-saturating concentrations of an inhibitor. […] The averaged values were used for the final plot, and EC50 values were determined with MARS Data Analysis software version 3.00 (BMG LABTECH, Ortenberg, Germany). The data were plotted (F vs. C) and fitted to a four-parameter equation, F = F0 + (F∞ − F0)/[1 + (EC50/C)^n], where F is the measured fluorescence anisotropy of a solution containing the labeled DNA at a given concentration (C) of protein, F0 is the fluorescence anisotropy of the solution of the labeled DNA alone, F∞ is the fluorescence anisotropy of the labeled DNA saturated with the protein, EC50 is the concentration of the protein where F − F0 = (F∞ − F0)/2, and n is the Hill coefficient, which denotes the slope of the nonlinear curve. The apparent rate constants (kobs values) of dissociation of the PARP1 (PARP2)-DNA complex during the PARylation reaction performed in the absence or presence of an inhibitor were estimated by fluorescence anisotropy measurements, as described previously. […] The kinetic data were fitted to an exponential curve to calculate kobs with MARS Data Analysis software. […]

PARP1-DNA complex [2] = target: T1, PARP1-DNA complex; assay: AutoPARylation-induced dissociation of the PARP1-DNA complex (fluorescence anisotropy kinetics); format: biochemical; conditions: 120 µM H2N-Mor-T or 400 nM olaparib
Experimental: as §1

[3] = tested on: HeLa cell line (cervical cancer); assay: Cell culture cytotoxicity assay (EZ4U/MTT), compounds alone and combined with hydrogen peroxide; conditions: for Effect (H2O2 + PARP inhibitor combo) / Combination index (CI): Hela; for Combination index (CI): CompuSyn; for Combination index (CI) with H2O2, as stated in text: different concentrations of H2O2 and inhibitor, Hela cells
Experimental: The cytotoxicity of the compounds and their combinations with a DNA damaging agent were examined against human cells from the HeLa cell line (cervical cancer) using an EZ4U/MTT colorimetric test (Biomedica, Vienna, Austria). […] The cells were grown in 96-well plates in DMEM medium (Gibco, Thermo Fisher Scientific, Waltham, MA, USA), with 1x GlutaMAX (Gibco, Thermo Fisher Scientific, Waltham, MA, USA), 50 IU/mL penicillin, 50 μg/mL streptomycin (MP Biome-dicals, Santa Ana, CA, USA), and in the presence of 10% fetal bovine serum (Biolot, Saint Petersburg, Russia) in a 5% CO2 atmosphere. After the formation of a 30–50% monolayer, the tested compounds were added to the medium to final concentrations specified in Figure 2 and Figure S4, and the cell culture was monitored for 3 days. […] The combination index (CI) values were calculated using CompuSyn software version 1.0.

PARP2-DNA complex [4] = target: T2, PARP2-DNA complex (Mus musculus, UniProt O88554); assay: Fluorescence anisotropy titration of FAM-labeled gap-DNA with PARP2; format: binding, murine; conditions: 240 µM inhibitor
T2 construct: made in house; host or cells: insect cells
Experimental: as §1

PARP2-DNA complex [5] = target: T2, PARP2-DNA complex; assay: AutoPARylation-induced dissociation of the PARP2-DNA complex (fluorescence anisotropy kinetics); format: biochemical, murine; conditions: 240 µM H2N-Mor-U(I) or 800 nM olaparib
Experimental: as §1

PARP2 = target: T3, PARP2 (Mus musculus, UniProt O88554); assay: Steady-state kinetic analysis of the PARP2 enzymatic reaction; format: biochemical, murine
T3 construct: made in house; host or cells: insect cells
Experimental: The four efficient inhibitors of PARP1 (compounds 8, 12, 13, and 14) were further examined by detailed kinetic experiments to determine the type of inhibition and the inhibition constants. […] The kinetics experiments of the PARylation reaction were performed at varied concentrations of the NAD^+ substrate and three–four different fixed concentrations of the inhibitor. The kinetic parameters of the reaction (Vmax and KM) were calculated by fitting the Michaelis–Menten equation to the kinetic data. The type of inhibition was determined by analyzing the dependences of Vmax and KM on the concentration of the inhibitor in linearizing coordinates (Figure S3). All the compounds had decreased Vmax and increased KM values as the inhibitor concentration increased (panels A−E), indicating a mixed type of inhibition, which was further evidenced by the double reciprocal plots of kinetic data (panel F). From these experiments, the inhibition constants reflecting the affinity of inhibitors to the NAD^+ binding pocket of free enzymes were determined (Table 2).
To determine the apparent maximum rate of enzymatic reaction (Vmax), Michaelis constant (KM), and possible inhibition mechanism, steady-state kinetic experiments were performed at […] fixed concentrations of the substrate, in the absence and presence of different fixed concentrations of the inhibitor. The standard reaction mixtures (10 μL) contained 100 μM, 300 μM, 500 μM, 1 mM, or 2 mM NAD^+; a tested PARP1/PARP2 inhibitor specified for each compound (Figure S3); the recombinant human enzyme PARP1 (200 nM) or murine PARP2 (800 nM); and reaction buffer components (specified in the previous subsection). The reaction was performed as described in the previous subsection. The raw data (kinetic curves) were obtained in three independent experiments and statistically processed with OriginPro 8.6.0 software. […]
F) Graphical representation in double reciprocal plots. […]
The Ki and Ki(2) values presented in Table 2 in the main text and Table S1 were calculated using the equations: […]

[6] = H2O2 150 μM + inhibitor 1000 μM
[7] = H2O2 250 μM + inhibitor 1000 μM

T3 sequence (O88554 whole entry): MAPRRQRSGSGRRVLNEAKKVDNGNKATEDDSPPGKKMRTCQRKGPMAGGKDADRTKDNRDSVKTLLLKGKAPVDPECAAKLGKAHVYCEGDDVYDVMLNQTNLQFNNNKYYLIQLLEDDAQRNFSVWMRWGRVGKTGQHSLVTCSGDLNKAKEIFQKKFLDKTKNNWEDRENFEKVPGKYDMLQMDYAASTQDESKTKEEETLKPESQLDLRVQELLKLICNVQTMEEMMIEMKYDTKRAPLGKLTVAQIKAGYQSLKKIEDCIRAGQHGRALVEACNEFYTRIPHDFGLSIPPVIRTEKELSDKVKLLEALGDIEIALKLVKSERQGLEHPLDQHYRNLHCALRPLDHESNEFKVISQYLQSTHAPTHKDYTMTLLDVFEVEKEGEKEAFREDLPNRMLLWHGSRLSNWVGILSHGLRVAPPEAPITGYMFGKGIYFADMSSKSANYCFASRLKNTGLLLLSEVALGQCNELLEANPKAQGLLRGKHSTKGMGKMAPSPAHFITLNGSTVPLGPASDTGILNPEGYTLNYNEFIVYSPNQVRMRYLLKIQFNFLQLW
T2 sequence (O88554 whole entry, one chain of several): as the sequence (O88554 whole entry) above
T1 sequence (P09874 whole entry, one chain of several): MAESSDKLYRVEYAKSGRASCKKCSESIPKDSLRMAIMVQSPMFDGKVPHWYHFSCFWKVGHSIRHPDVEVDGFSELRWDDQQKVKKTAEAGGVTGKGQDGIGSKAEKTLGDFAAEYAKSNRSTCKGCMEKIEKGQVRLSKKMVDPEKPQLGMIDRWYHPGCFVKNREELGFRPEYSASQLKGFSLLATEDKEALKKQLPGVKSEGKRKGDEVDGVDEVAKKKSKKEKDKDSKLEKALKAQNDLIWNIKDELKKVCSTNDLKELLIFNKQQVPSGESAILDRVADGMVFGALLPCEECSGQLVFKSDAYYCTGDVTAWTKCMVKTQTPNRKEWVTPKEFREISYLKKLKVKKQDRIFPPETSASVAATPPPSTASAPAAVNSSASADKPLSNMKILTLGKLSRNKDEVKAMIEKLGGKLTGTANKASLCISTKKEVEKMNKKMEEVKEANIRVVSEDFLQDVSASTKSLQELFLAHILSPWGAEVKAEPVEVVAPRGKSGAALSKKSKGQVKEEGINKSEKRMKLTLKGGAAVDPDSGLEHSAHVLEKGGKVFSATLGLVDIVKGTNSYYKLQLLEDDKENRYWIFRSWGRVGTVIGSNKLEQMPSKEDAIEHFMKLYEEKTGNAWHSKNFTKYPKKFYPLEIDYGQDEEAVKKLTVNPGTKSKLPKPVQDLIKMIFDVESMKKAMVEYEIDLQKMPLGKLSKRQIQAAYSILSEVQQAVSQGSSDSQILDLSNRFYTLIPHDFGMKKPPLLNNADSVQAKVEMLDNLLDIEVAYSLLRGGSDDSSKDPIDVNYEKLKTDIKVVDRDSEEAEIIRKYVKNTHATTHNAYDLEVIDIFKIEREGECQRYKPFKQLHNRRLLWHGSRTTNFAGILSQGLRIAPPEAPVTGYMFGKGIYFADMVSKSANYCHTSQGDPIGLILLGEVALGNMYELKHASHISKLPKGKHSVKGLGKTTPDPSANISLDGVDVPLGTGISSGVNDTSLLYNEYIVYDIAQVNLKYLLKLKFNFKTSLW

SMILES	Effect (H2O2 + PARP inhibitor combo) ([3]; H2O2 30 μM + inhibitor 100 μM)	Combination index (CI) ([3]; H2O2 30 μM + inhibitor 100 μM)	Effect (H2O2 + PARP inhibitor combo) ([3]; H2O2 30 μM + inhibitor 1000 μM)	Combination index (CI) ([3]; H2O2 30 μM + inhibitor 1000 μM)	Effect (H2O2 + PARP inhibitor combo) ([3]; H2O2 50 μM + inhibitor 100 μM)	Combination index (CI) ([3]; H2O2 50 μM + inhibitor 100 μM)	Effect (H2O2 + PARP inhibitor combo) ([3]; H2O2 50 μM + inhibitor 1000 μM)	Combination index (CI) ([3]; H2O2 50 μM + inhibitor 1000 μM)	Effect (H2O2 + PARP inhibitor combo) ([3]; H2O2 90 μM + inhibitor 100 μM)	Combination index (CI) ([3]; H2O2 90 μM + inhibitor 100 μM)	Effect (H2O2 + PARP inhibitor combo) ([3]; H2O2 90 μM + inhibitor 1000 μM)	Combination index (CI) ([3]; H2O2 90 μM + inhibitor 1000 μM)	Effect (H2O2 + PARP inhibitor combo) ([3]; H2O2 150 μM + inhibitor 100 μM)	Combination index (CI) ([3]; H2O2 150 μM + inhibitor 100 μM)	Effect (H2O2 + PARP inhibitor combo) [3, 6]	Combination index (CI) [3, 6]	Effect (H2O2 + PARP inhibitor combo) ([3]; H2O2 250 μM + inhibitor 100 μM)	Combination index (CI) ([3]; H2O2 250 μM + inhibitor 100 μM)	Effect (H2O2 + PARP inhibitor combo) [3, 7]	Combination index (CI) [3, 7]	also measured
Cc1cn([C@H]2CNC[C@@H](CN)O2)c(=O)[nH]c1=O [Compound 8]	0.15	2.596	0.46	0.6254	0.21	1.707	0.59	0.2634	0.48	0.375	0.68	0.1724	0.61	0.2716	0.79	0.09406	0.94	0.01519	0.92	0.02575	Effect of inhibitor on EC50 of the PARP1–DNA complex (PARP1-DNA complex [1]): almost the same; Inhibition of dissociation of the PARP1 complex with DNA (PARP1-DNA complex [2]; 0.4 mM NAD+): ~ 2 fold; Inhibition of dissociation of the PARP1 complex with DNA (PARP1-DNA complex [2]; 1.4 mM NAD+): ~ 1.5 fold; Combination index (CI) with H2O2, as stated in text [3]: less than one
NC[C@@H]1CNC[C@H](n2cc(I)c(=O)[nH]c2=O)O1 [Compound 14]	0.46	0.6331	0.3	0.3003	0.47	0.5789	0.32	0.2452	0.6	0.1778	0.5	0.04618	0.68	0.08158	0.61	0.01767	0.82	0.01487	0.84	0.00135	Effect of inhibitor on the stability of the PARP2–DNA complex (PARP2-DNA complex [4]): No statistically significant effect; Combination index (CI) with H2O2, as stated in text [3]: less than one; Inhibition of dissociation of the PARP2 complex with DNA (PARP2-DNA complex [5]; 0.4 mM NAD+): ~ 2 fold; Inhibition of dissociation of the PARP2 complex with DNA (PARP2-DNA complex [5]; 1.4 mM NAD+): ~ 1.5 fold; Type of inhibition (PARP2; Vmax decreased, KM increased): mixed-type inhibition; Ki (PARP2; mixed-type inhibition, read-out: Ki (affinity for the free enzyme)): 120 ± 23 µM; Ki (PARP2; read-out: Ki(2) (affinity for the enzyme complex with NAD+ substrate)): 400 ± 70 µM
